# Paper PMC9596378, “Discovery and molecular basis of subtype-selective cyclophilin inhibitors” (Nature Chemical Biology, 2022)
# Several values for one entry are separate records, joined by “and”; a condition that tells them apart may be missing. Equal values may be shown once. Read-outs that look alike come from different tables or passages of the source.
# Key:
# CypH = target: T1, CypH (Homo sapiens, UniProt O43447); assay: Chymotrypsin coupled prolyl-isomerase assay; type: biochemical
# T1 construct: PPIH (UniProtKB Entry O43447: residues 1–177); His6 with TEV site (2BT vector leader) (N); made in house; host or cells: E. coli BL21(DE3)
# T1 sequence (O43447 whole entry, the tested form may be a part): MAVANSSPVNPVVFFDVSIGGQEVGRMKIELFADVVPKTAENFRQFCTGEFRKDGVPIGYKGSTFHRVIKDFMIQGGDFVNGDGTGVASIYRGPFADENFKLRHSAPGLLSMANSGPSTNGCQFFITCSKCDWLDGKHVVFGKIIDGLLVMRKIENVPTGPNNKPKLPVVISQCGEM
# In short: (§1)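 Recombinant cyclophilin (5 nM final) in 25 mM HEPES pH 7.3, 100 mM NaCl, 0.01% Triton X-100 was preincubated with compound at 2–3 °C. It was then coupled with 25 µM α-chymotrypsin and 5 µM Suc-AAPF-AMC (LiCl/TFE), and AMC fluorescence was followed for 330 s.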
# CypB = target: T2, CypB (Homo sapiens, UniProt P23284); assay: biochemical;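 on CypB prolyl-isomerase raw dose-response reading (Fig. 6c): observed rate constant per well from one-phase association fit in s−1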
# T2 construct: PPIB (UniProtKB Entry P23284: residues 34–216); His6 with TEV site (2BT vector leader) (N); made in house; host or cells: E. coli BL21(DE3)
# T2 sequence (P23284 34-216): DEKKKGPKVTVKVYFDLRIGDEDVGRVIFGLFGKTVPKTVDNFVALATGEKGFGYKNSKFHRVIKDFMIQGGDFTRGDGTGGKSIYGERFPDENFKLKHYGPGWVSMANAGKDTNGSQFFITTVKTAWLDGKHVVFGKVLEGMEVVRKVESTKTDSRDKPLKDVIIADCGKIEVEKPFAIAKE
# In short: as §1
# NKTR = target: T3, NKTR (Homo sapiens, UniProt P30414); assay: Chymotrypsin coupled prolyl-isomerase assay; type: biochemical;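 on NKTR prolyl-isomerase raw dose-response reading (Fig. 6c): Per-well observed rate constant from one-phase association fit in s−1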
# T3 construct: NKTR (UniProtKB Entry P30414: residues 7–179); host or cells: E. coli BL21(DE3)
# T3 sequence (P30414 7-179): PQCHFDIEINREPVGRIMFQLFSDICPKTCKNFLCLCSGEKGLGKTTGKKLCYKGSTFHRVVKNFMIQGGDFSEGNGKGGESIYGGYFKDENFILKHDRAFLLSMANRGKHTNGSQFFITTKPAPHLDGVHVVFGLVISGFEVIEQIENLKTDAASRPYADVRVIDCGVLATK
# PPIL1 = target: T4, PPIL1 (Homo sapiens, UniProt Q9Y3C6); assay: Chymotrypsin coupled prolyl-isomerase assay; type: biochemical;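 on PPIL1 prolyl-isomerase raw dose-response reading (Fig. 6c): Per-well observed rate constant from one-phase association fit in s−1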
# T4 construct: PPIL1 (UniProtKB Entry Q9Y3C6: residues 1–166); made in house; host or cells: E. coli BL21(DE3)
# T4 sequence (Q9Y3C6 1-166): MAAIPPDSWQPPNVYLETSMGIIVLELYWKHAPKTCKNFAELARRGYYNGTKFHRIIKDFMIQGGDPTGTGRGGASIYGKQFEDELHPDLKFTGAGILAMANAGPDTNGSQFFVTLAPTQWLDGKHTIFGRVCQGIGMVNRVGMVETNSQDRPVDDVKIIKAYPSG
compound,measurement,setting,value
NC(=O)C1CCNC(=O)C=CC(=O)N2CCCC(Cc3ccccc3)(C2)C(=O)NC(Cc2ccc(-c3ccc(C=O)c(B(O)O)c3)cc2)C(=O)NCc2ccccc2CC(=O)N1 (centres unmarked) [Compound C3A],CypH prolyl-isomerase raw dose-response reading (Fig. 6c),CypH; Dose 0.0411523 µM,0.05731 and 0.04453 and 0.05359
same,CypH prolyl-isomerase raw dose-response reading (Fig. 6c),CypH; Dose 0.123457 µM,0.05145 and 0.04681 and 0.07329
same,CypH prolyl-isomerase raw dose-response reading (Fig. 6c),CypH; Dose 0.37037 µM,0.05882 and 0.04794 and 0.07376
same,CypH prolyl-isomerase raw dose-response reading (Fig. 6c),CypH; Dose 1.11111 µM,0.06718 and 0.05255 and 0.05895
same,CypH prolyl-isomerase raw dose-response reading (Fig. 6c),CypH; Dose 3.33333 µM,0.06287 and 0.05436 and 0.04825
same,CypH prolyl-isomerase raw dose-response reading (Fig. 6c),CypH; Dose 10 µM,0.04443 and 0.06084 and 0.04295
same,IC50,"CypH; Independent replicate 1, read-out: IC50 CypH",> 10 µM
same,IC50,"CypH; Independent replicate 2, read-out: IC50 CypH",> 50 µM
same,IC50,"CypH; Independent replicate 3, read-out: IC50 CypH",~40 µM
same,IC50,"CypH; Independent replicate 4, read-out: IC50 CypH",> 50 µM
same,IC50,"CypH; prolyl-isomerase inhibition, 5 nM cyclophilin, read-out: IC50 CypH",> 50 µM
same,IC50,"CypH; wild-type CypH, read-out: Wild-Type Cyclophilin Prolyl Isomerase Inhibition IC50 Values, CypH",> 50 µM
same,CypB prolyl-isomerase raw dose-response reading (Fig. 6c),CypB; Dose 0.00114312 µM,0.06934 and 0.06783 and 0.08183
same,CypB prolyl-isomerase raw dose-response reading (Fig. 6c),CypB; Dose 0.00342936 µM,0.07621 and 0.06975 and 0.07172
same,CypB prolyl-isomerase raw dose-response reading (Fig. 6c),CypB; Dose 0.0102881 µM,0.07116 and 0.04746 and 0.08093
same,CypB prolyl-isomerase raw dose-response reading (Fig. 6c),CypB; Dose 0.0308642 µM,0.07891 and 0.06745 and 0.0815
same,CypB prolyl-isomerase raw dose-response reading (Fig. 6c),CypB; Dose 0.0925926 µM,0.06054 and 0.05873 and 0.07182
same,CypB prolyl-isomerase raw dose-response reading (Fig. 6c),CypB; Dose 0.277778 µM,0.07925 and 0.05977 and 0.05725
same,CypB prolyl-isomerase raw dose-response reading (Fig. 6c),CypB; Dose 0.833333 µM,0.07516 and 0.05333 and 0.06224
same,CypB prolyl-isomerase raw dose-response reading (Fig. 6c),CypB; Dose 2.5 µM,0.05113 and 0.04833 and 0.05428
same,IC50,"CypB; Independent replicate 1, read-out: IC50 CypB",~3 µM
same,IC50,"CypB; Independent replicate 2, read-out: IC50 CypB",7 ± 3 µM
same,IC50,"CypB; Independent replicate 3, read-out: IC50 CypB",3 ± 1 µM
same,IC50,"CypB; Independent replicate 4, read-out: IC50 CypB",3 ± 2 µM
same,IC50,"CypB; wild-type CypB, read-out: Wild-Type Cyclophilin Prolyl Isomerase Inhibition IC50 Values, CypB",4 µM
same,NKTR prolyl-isomerase raw dose-response reading (Fig. 6c),NKTR; Dose 0.00457247 µM,0.03021 and 0.03304 and 0.03422
same,NKTR prolyl-isomerase raw dose-response reading (Fig. 6c),NKTR; Dose 0.0137174 µM,0.0282 and 0.04075 and 0.02833
same,NKTR prolyl-isomerase raw dose-response reading (Fig. 6c),NKTR; Dose 0.0411523 µM,0.03114 and 0.03658 and 0.02835
same,NKTR prolyl-isomerase raw dose-response reading (Fig. 6c),NKTR; Dose 0.123457 µM,0.03167 and 0.03382 and 0.0302
same,NKTR prolyl-isomerase raw dose-response reading (Fig. 6c),NKTR; Dose 0.37037 µM,0.03191 and 0.03367 and 0.02844
same,NKTR prolyl-isomerase raw dose-response reading (Fig. 6c),NKTR; Dose 1.11111 µM,0.03612 and 0.0297 and 0.03587
same,NKTR prolyl-isomerase raw dose-response reading (Fig. 6c),NKTR; Dose 3.33333 µM,0.03487 and 0.03208 and 0.0346
same,NKTR prolyl-isomerase raw dose-response reading (Fig. 6c),NKTR; Dose 10 µM,0.02874 and 0.02696 and 0.02891
same,IC50,"NKTR; Independent replicate 1, read-out: IC50 NKTR",> 10 µM
same,IC50,"NKTR; Independent replicate 2, read-out: IC50 NKTR",~30 µM
same,IC50,"NKTR; Independent replicate 3, read-out: IC50 NKTR",~30 µM
same,IC50,"NKTR; Independent replicate 4, read-out: IC50 NKTR",~40 µM
same,IC50,"NKTR; wild-type NKTR, read-out: Wild-Type Cyclophilin Prolyl Isomerase Inhibition IC50 Values, NKTR",33 µM
same,PPIL1 prolyl-isomerase raw dose-response reading (Fig. 6c),PPIL1; Dose 0.00114312 µM,0.05471 and 0.0599 and 0.05622
same,PPIL1 prolyl-isomerase raw dose-response reading (Fig. 6c),PPIL1; Dose 0.00342936 µM,0.05168 and 0.05762 and 0.07551
same,PPIL1 prolyl-isomerase raw dose-response reading (Fig. 6c),PPIL1; Dose 0.00457247 µM,0.05739 and 0.05515 and 0.06362 and 0.05346 and 0.05755 and 0.06002 and 0.05207 and 0.04334
same,PPIL1 prolyl-isomerase raw dose-response reading (Fig. 6c),PPIL1; Dose 0.0102881 µM,0.04812 and 0.0449 and 0.05106
same,PPIL1 prolyl-isomerase raw dose-response reading (Fig. 6c),PPIL1; Dose 0.0308642 µM,0.06685 and 0.05223 and 0.05525
same,PPIL1 prolyl-isomerase raw dose-response reading (Fig. 6c),PPIL1; Dose 0.0925926 µM,0.05203 and 0.04221 and 0.05411
same,PPIL1 prolyl-isomerase raw dose-response reading (Fig. 6c),PPIL1; Dose 0.277778 µM,0.04184 and 0.0372 and 0.04929
same,PPIL1 prolyl-isomerase raw dose-response reading (Fig. 6c),PPIL1; Dose 0.833333 µM,0.02447 and 0.02506 and 0.03512
same,PPIL1 prolyl-isomerase raw dose-response reading (Fig. 6c),PPIL1; Dose 2.5 µM,0.0232 and 0.01951 and 0.02784
same,IC50,"PPIL1; Independent replicate 1, read-out: IC50 PPIL1",0.4 ± 0.2 µM
same,IC50,"PPIL1; Independent replicate 2, read-out: IC50 PPIL1",0.5 ± 0.2 µM
same,IC50,"PPIL1; Independent replicate 3, read-out: IC50 PPIL1",0.25 ± 0.06 µM
same,IC50,"PPIL1; Independent replicate 4, read-out: IC50 PPIL1",0.36 ± 0.08 µM
same,IC50,"PPIL1; prolyl-isomerase inhibition, 5 nM cyclophilin, read-out: IC50 PPIL1",0.4 ± 0.1 µM
same,IC50,"PPIL1; wild-type PPIL1, read-out: Wild-Type Cyclophilin Prolyl Isomerase Inhibition IC50 Values, PPIL1",0.4 µM
